Data as given in patent US6602710B1, “Screening method for SREBP pathway-specific inhibitors” (Chugai Seiyaku Kabushiki Kaisha, priority 1998, dated 2003).

Key:
CHO-K1 cells = assay: amphotericin B cytotoxicity assay (cholesterol synthesis activity) in CHO-K1 cells; format: cell-based, Chinese hamster; details: 0.1 μg/ml 25-hydroxycholesterol, 24 hours, FIG. 4
DM7 cells = assay: amphotericin B cytotoxicity assay in DM7 cells; format: cell-based, Chinese hamster; details: compared with 25RA, amphotericin B in PBS, 4 hours, FIG. 3
25RA cells = details: amphotericin B at various concentrations in PBS, 4 hours, FIG. 3
[1] = tested on: LDL receptor activity of CHO-K1 cells; assay: 125I-LDL binding assay (LDL receptor activity) in CHO-K1 cells; format: cell-based, Chinese hamster; details: simvastatin + (1 μM), sterols −, 24 hours
Description: (§1) In order to measure LDL receptor activity, the examples of the present invention use the ^125I-LDL binding assay. However, other suitable means may include incorporation of LDL labeled with a fluorescent lipid DiI into cells or ELISA-mediated measurement of the amount of LDL receptors expressed on the surface of cell membranes, and the screening system of the present invention is not specifically limited to those shown herein.
(§2) On day 0, cells were seeded on 6-well plates at a density of 3×10^4 cells/well, and incubated in F-F12. […] On day 4, the cells were incubated at 4° C. for 2 hours, and then washed twice with PBS. Then, incubation was continued at 4° C. in L-F12 (containing 10 mM Hepes-NaOH, pH 7.4) containing 10 μg/ml ^125I-LDL or 10 μg/ml ^125I-LDL and 400 μg/ml LDL. After 5 hours, the cells were washed with buffer B (150 mM NaCl, 50 mM Tris-HCl, 2 mg/ml BSA, pH 7.4), then buffer C (150 mM NaCl, 50 mM Tris-HCl, pH 7.4) each three times, and incubated with 1 ml of buffer D (50 mM NaCl, 10 mM Hepes-NaOH, 4 mg/ml dextran sulfate, pH 7.4) at 4° C. After one hour, buffer D was recovered and assayed for its radioactivity. The protein level in cells remaining in wells was measured by the BCA method to calculate ^125I-LDL binding per mg of […].

[2] = tested on: LDL receptor activity of 25RA cells; assay: 125I-LDL binding assay (LDL receptor activity) in 25RA cells; format: cell-based, Chinese hamster; details: simvastatin + (1 μM), sterols −, 24 hours
Description: as §1, §2

## C[C@H](CCCC(C)(C)O)[C@H]1CC[C@H]2[C@@H]3CC=C4C[C@@H](O)CC[C@]4(C)[C@H]3CC[C@]12C [25-hydroxycholesterol]
CHO-K1 cells
  cholesterol synthesis activity (amphotericin B cytotoxicity assay): inhibited cholesterol synthesis activity

## C[C@@H]1[C@H](O)[C@@H](C)/C=C/C=C/C=C/C=C/C=C/C=C/C=C/[C@H](O[C@@H]2O[C@H](C)[C@@H](O)[C@H](N)[C@@H]2O)C[C@@H]2O[C@](O)(C[C@@H](O)C[C@@H](O)[C@H](O)CC[C@@H](O)C[C@@H](O)CC(=O)O[C@H]1C)C[C@H](O)[C@H]2C(=O)O [amphotericin B]
DM7 cells
  survival of cells treated with amphotericin B: remarkable resistance
25RA cells
  survival of cells treated with amphotericin B: decreased depending on the concentration

## CCC(C)(C)C(=O)O[C@H]1C[C@@H](C)C=C2C=C[C@H](C)[C@H](CC[C@@H]3C[C@@H](O)CC(=O)O3)[C@H]21 [simvastatin]
[1]
  Cell surface binding of [125I]LDL: 30.1 ng/mg protein
[2]
  Cell surface binding of [125I]LDL: 20.9 ng/mg protein
